In PMC10614160 (Journal of medicinal chemistry, 2023):

Tested on: OVSAHO cells
Assay: cell viability of OVSAHO cells
Format: cell-based
Details: for effect of combining the drug with 1 on inhibiting OVSAHO cells: compared with 1 alone; for 24 h cytotoxicity against OVSAHO: drug alone

| Molecule | effect of combining the drug with 1 on inhibiting OVSAHO cells (combined with 1 (20 μM), 24 h) | other results |
| --- | --- | --- |
| CC(C)(C)c1ccc(S(=O)(=O)/C=C/C#N)cc1 [BAY11–7085] | slightly enhances |  |
| CC(C)C[C@H](NC(=O)[C@H](Cc1ccccc1)NC(=O)c1cnccn1)B(O)O [BTZ, bortezomib] | No inhibition enhancement |  |
| COC(=O)[C@@]1(O)C[C@H]2O[C@]1(C)n1c3ccccc3c3c4c(c5c6ccccc6n2c5c31)C(=O)NC4 [K252A] | slightly enhances |  |
| O=C(C1CC1)N1CCN(Cn2sc3ccccc3c2=O)CC1 [LOC14] | No inhibition enhancement |  |
| N.N.[Cl][Pt][Cl] [cisplatin] | slightly enhances |  |
| COc1cccc2c1C(=O)c1c(O)c3c(c(O)c1C2=O)C[C@@](O)(C(=O)CO)C[C@@H]3O[C@H]1C[C@H](N)[C@H](O)[C@H](C)O1 [doxorubicin] |  | cell viability of OVSAHO treated with 1 combined with the drug (combined with 1 (20 μM), 24 h): ~20%; 24 h cytotoxicity against OVSAHO (1.25 μM): around 75%; 24 h cytotoxicity against OVSAHO (2.5 μM): around 75%; 24 h cytotoxicity against OVSAHO (5 μM): around 75% |
| CC(=O)O[C@H]1C(=O)[C@@]2(C)[C@H]([C@H](OC(=O)c3ccccc3)[C@]3(O)C[C@H](OC(=O)[C@H](O)[C@@H](NC(=O)c4ccccc4)c4ccccc4)C(C)=C1C3(C)C)[C@]1(OC(C)=O)CO[C@@H]1C[C@@H]2O [paclitaxel] | No inhibition enhancement |  |
| Cn1ncnc1[C@H]1c2n[nH]c(=O)c3cc(F)cc(c23)N[C@@H]1c1ccc(F)cc1 [talazoparib] | No inhibition enhancement |  |
| PACMA31 | No inhibition enhancement |  |
